Experiment [1] relates to S. aureus ATCC 13709(Meth^S). As to the kind of experiment: In vitro MIC, agar dilution. It counts as cell-based. As to conditions: Staphylococcus aureus, ATCC13709, S. aureus ATCC 13709(Meth^S); read-out: minimum inhibitory concentration (MIC). In a few lines: (§1)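 Growth inhibition was scored after 16-20 h at 35-36 °C on Mueller-Hinton agar carrying serial two-fold drug concentrations (128 to ≤0.25 μg/mL). Inocula of ~10^4 cfu per spot came from 4-6 h broth cultures.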
A general note: In agar dilution the substance is mixed into plates at graded concentrations.

In experiment [2] the test system is S. aureus 76(Meth^R)(lac^+). As to the kind of experiment: In vitro MIC, agar dilution. It counts as cell-based. The settings on record: Staphylococcus aureus, read-out: minimum inhibitory concentration (MIC). In a few lines: as §1
The test system of experiment [3] is P. aeruginosa ATCC 27853. As to the kind of experiment: In vitro MIC, agar dilution. It counts as cell-based. The settings on record: Pseudomonas aeruginosa, ATCC27853, read-out: minimum inhibitory concentration (MIC). Summed up: as §1
Experiment [4] relates to E. coli ATCC 25992. As to the kind of experiment: In vitro MIC, agar dilution. It counts as cell-based. As to conditions: Escherichia coli, ATCC25992, read-out: minimum inhibitory concentration (MIC). Summed up: as §1
The subject of experiment [5] is S. aureus PC1(Meth^S)(lac^+). As to the kind of experiment: In vitro MIC, agar dilution. It counts as cell-based. The settings on record: Staphylococcus aureus, read-out: minimum inhibitory concentration (MIC). In a few lines: as §1
Experiment [6] has as its system E. faecium ATCC 35667. As to the kind of experiment: In vitro MIC, agar dilution. It counts as cell-based. As to conditions: Enterococcus faecium, ATCC35667, read-out: minimum inhibitory concentration (MIC). In a few lines:
as §1

In experiment [7] the test system is E. faecalis ATCC 29212. As to the kind of experiment: In vitro MIC, agar dilution. It counts as cell-based. As to conditions: Enterococcus faecalis, ATCC29212, read-out: minimum inhibitory concentration (MIC). In a few lines: as §1
Experiment [8] has as its system E. faecium VanA(Van^R). As to the kind of experiment: In vitro MIC, agar dilution. As to conditions: Enterococcus faecium, read-out: minimum inhibitory concentration (MIC). It counts as cell-based. Summed up: as §1
The subject of experiment [9] is E. faecalis VanB(Van^R). As to the kind of experiment: In vitro MIC, agar dilution. It counts as cell-based. As to conditions: Enterococcus faecalis, read-out: minimum inhibitory concentration (MIC). Summed up:
as §1

Experiment [10] relates to S. haemolyticus 05(Meth^R). As to the kind of experiment: In vitro MIC, agar dilution. As to conditions: Staphylococcus haemolyticus, read-out: minimum inhibitory concentration (MIC). It counts as cell-based. In a few lines: as §1
Experiment [11] concerns S. aureus Spain #356(Meth^R). As to the kind of experiment: In vitro MIC, agar dilution. It counts as cell-based. The settings on record: Staphylococcus aureus, read-out: minimum inhibitory concentration (MIC). Summed up:
as §1

In experiment [12] the test system is E. faecium A491(Amp^R). As to the kind of experiment: In vitro MIC, agar dilution. It counts as cell-based. As to conditions: Enterococcus faecium, read-out: minimum inhibitory concentration (MIC). In a few lines:
as §1

In experiment [13] the test system is S. aureus ATCC 33593(Meth^R). As to the kind of experiment: In vitro MIC, agar dilution. It counts as cell-based. The settings on record: Staphylococcus aureus, ATCC33593, read-out: minimum inhibitory concentration (MIC). In a few lines:
as §1

Experiment [14] concerns S. aureus ATCC 29213. As to the kind of experiment: In vitro MIC, agar dilution. It counts as cell-based. As to conditions: Staphylococcus aureus, ATCC29213, read-out: minimum inhibitory concentration (MIC). In a few lines:
as §1

Experiment [15] relates to S. aureus Col(Meth^R)(lac^-). As to the kind of experiment: In vitro MIC, agar dilution. The settings on record: Staphylococcus aureus, read-out: minimum inhibitory concentration (MIC). It counts as cell-based. In a few lines:
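Two-fold dilutions (128 to ≤0.25 μg/mL, in duplicate) were poured into Mueller-Hinton agar. Log-phase broth cultures were spot-inoculated at about 10^4 cfu per spot and incubated 35-36°C for 16-20 hours; the MIC was the lowest concentration inhibiting growth. Col is a high-level PBP2a producer; Col 8A is its isogenic PBP2a-lacking partner.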

Experiment [16] has as its system S. aureus strain ATCC 13709 (methicillin-susceptible). As to the kind of experiment: Murine model for lethal bacteremic peritonitis. The settings on record: Staphylococcus aureus, ATCC13709, SC, 72 h; for responders at 0.3125 mg/kg / responders at 0.625 mg/kg / responders at 2.5 mg/kg / responders at 5 mg/kg: read-out: Survivors; for responders at 1.25 mg/kg: read-out: Survivors (converted); for ED50: two equal doses, IP challenge, read-out: ED50. It counts as in vivo, female Swiss-Webster mice. As for the experimental part:
Groups of 5 female Swiss-Webster mice (Simonsen, Gilroy, Calif.) each are challenged by the intraperitoneal (IP) route with tenfold increments of a bacterial inoculum. This permits calculation of the mean lethal dose (LD50) and the LD100. For preliminary evaluation of a new antibiotic, mice are challenged IP with an LD100 titer of bacteria. In two equal doses administered at the time of bacterial challenge and 2 hours later, groups of 10 mice each are treated subcutaneously with two-fold increments of the test drug and an antibiotic of known efficacy in mice and humans (i.e., positive control). Mice are observed for 72 h. Those alive at 72 h are considered long term survivors. The total drug dose in mg/kg that protects 50% of mice in a group from death is termed the mean protective dose (PD50). PD50 s are similarly determined for several pathogens. The quantitative endpoints for the new drug are then compared with those obtained with reference antibiotics.
Six ten-fold dilutions of inoculum suspended in 0.5 mL of sterilized 7% hog gastric mucin (Sigma) are injected IP in groups of 5 mice each. A control group of 5 mice receive mucin alone. Mice are observed for 72 h. Those alive at 72 h are considered long term survivors. The mean lethal dose (LD50) and 100% lethal dose (LD100) are determined by the probit test.
For antibiotic efficacy studies, mice are challenged IP with bacterial titers that will afford an LD100 for the test strain. In two equal doses administered at the time of bacterial challenge and 2 hours later, groups of 10 mice each are treated by the subcutaneous route (SC) with twofold increments of the test antibiotic; another group is treated similarly with a reference antibiotic of known efficacy in animals and man. Drug doses can range from 0.01 to 512 mg/kg. If the drug is poorly soluble, Tween 20 or propylene glycol will be employed to solubilize the drug. Animals are observed for 72 h. The 50% protective dose (PD50) is calculated in mg/kg by the probit method. The PD50 is the same as the 50% effective dose (ED50) and the 50% curative dose (CD50). Samples of blood from the hearts of all animals that die and from half the mice that survive are cultured on brain-heart infusion agar. Animals that received a protective dosage of the test drug will be alive at 72 h, although they may appear moderately ill to very ill during the observation period. […] Most of these mice will die within 6 to 48 h. Those alive at 72 h will be considered long term survivors.
(Compound numbers correspond to those in MIC tables; data reported for challenge with methicillin-susceptible S. aureus strain ATCC 13709.)

Structures are written as SMILES. Converted amounts (≈) assume the structure as drawn. Structures can show the parent of a compound that is named as a salt. Where only a bound is given, the exact number is not on record here.

The term ED50 denotes the dose that gives a 50% effect, or the effect in half of the subjects. `NC(=O)CSCc1cnccc1SC1=C(C(=O)O)N2C(=O)[C@@H](NC(=O)/C(=N\O)c3nc(N)sc3Cl)[C@H]2SC1` [Cmpd 39, (7R)-7-[(Z)-2-(2-amino-5-chlorothiazol-4-yl)-2-(hydroxyimino)acetamido]-3-(3-carboxamidomethylthiomethylpyrid-4-ylthio)-3-cephem-4-carboxylic acid]: the MIC in [1] is 0.25 µg/mL (≈ 0.406 µM); in experiment [2], 4 µg/mL (≈ 6.49 µM); in experiment [3], over 32 µg/mL; in experiment [4], 8 µg/mL (≈ 13 µM); in experiment [5] it was 0.5 µg/mL (≈ 0.812 µM); in experiment [6], 1 µg/mL (≈ 1.62 µM). For the same compound, the MIC in experiment [7] is 0.25 µg/mL (≈ 0.406 µM); in [8], 2 µg/mL (≈ 3.25 µM); in experiment [9], 0.25 µg/mL (≈ 0.406 µM); in experiment [10], 8 µg/mL (≈ 13 µM); in experiment [11], 4 µg/mL (≈ 6.49 µM); in experiment [12], 32 µg/mL (≈ 51.9 µM). The MIC in experiment [13] is 4 µg/mL (≈ 6.49 µM); in experiment [14], 0.25 µg/mL (≈ 0.406 µM); in [15], 2 µg/mL (≈ 3.25 µM). Besides, in experiment [16], the responders at 0.3125 mg/kg worked out at 10%. The responders at 0.625 mg/kg in experiment [16] was found to be 30%. In experiment [16], the responders at 1.25 mg/kg is 60%. In experiment [16], the responders at 2.5 mg/kg came out at 60%. The responders at 5 mg/kg in experiment [16] was 100%. In addition, the ED50 in experiment [16] is 1.15 mg/kg.
In the case of `NCC(=O)NCCSCc1cnccc1SC1=C(C(=O)O)N2C(=O)[C@@H](NC(=O)/C(=N\O)c3nc(N)sc3Cl)[C@H]2SC1` [Cmpd 29, (7R)-7-[(Z)-2-(2-amino-5-chlorothiazol-4-yl)-2-(hydroxyimino)acetamido]-3-[3-(glycyl)aminoethylthiomethylpyrid-4-ylthio]-3-cephem-4-carboxylate, trifluoroacetic acid salt], the MIC in [1] is 0.13 µg/mL; in [2] it was 1 µg/mL; in experiment [3] it was over 32 µg/mL; in experiment [4] it was 8 µg/mL; in experiment [5], 0.25 µg/mL; in experiment [6], 0.25 µg/mL. Besides, the MIC is at most 0.06 µg/mL in [7]; 0.5 µg/mL in [8]; at most 0.06 µg/mL in experiment [9]; 2 µg/mL in experiment [10]; 2 µg/mL in [11]; 4 µg/mL in experiment [12]. Moreover, the MIC in [13] was found to be 2 µg/mL; in [14] it was 0.25 µg/mL; in [15] it was 1 µg/mL. For the same compound, the responders at 0.3125 mg/kg in [16] came to 20%. Moreover, the responders at 0.625 mg/kg in experiment [16] stood at 50%. Moreover, the responders at 1.25 mg/kg in experiment [16] was 90%. Moreover, in experiment [16], the responders at 2.5 mg/kg is 90%. The responders at 5 mg/kg in experiment [16] stood at 70%. Further, the ED50 in experiment [16] is 1.26 mg/kg.
As to `Nc1nc(/C(=N/O)C(=O)N[C@@H]2C(=O)N3C(C(=O)O)=C(Sc4ccncc4CSCC(N)CO)CS[C@H]23)c(Cl)s1` (stereo partly drawn) [Cmpd 56, (7R)-7-[(Z)-2-(2-amino-5-chlorothiazol-4-yl)-2-(hydroxyimino)acetamido]-3-[3-(2RS-2-amino-3-hydroxyprop-1-ylthiomethyl)pyrid-4-ylthio]-3-cephem-4-carboxylate, trifluoroacetic acid salt], the MIC in experiment [1] was 0.25 µg/mL; in experiment [2], 2 µg/mL; in experiment [3] it was over 32 µg/mL; in experiment [4], 8 µg/mL; in experiment [5], 0.5 µg/mL; in [6] it was 1 µg/mL. Besides, the MIC in experiment [7] turned out to be 0.13 µg/mL; in experiment [8] it was 1 µg/mL; in [9], 2 µg/mL; in experiment [10], 4 µg/mL; in experiment [11], 2 µg/mL; in experiment [12], 8 µg/mL. In addition, the MIC in experiment [13] came to 2 µg/mL; in experiment [14], 0.5 µg/mL; in experiment [15], 2 µg/mL. The responders at 0.3125 mg/kg in [16] is 20%. Moreover, the responders at 0.625 mg/kg in experiment [16] stood at 30%. In addition, in experiment [16], the responders at 1.25 mg/kg is 30%. Moreover, the responders at 2.5 mg/kg in [16] was found to be 80%. For the same compound, the responders at 5 mg/kg in [16] was found to be 80%. The ED50 in [16] was 1.23 mg/kg.
As to `N=C(N)NCCSCc1cnccc1SC1=C(C(=O)O)N2C(=O)[C@@H](NC(=O)/C(=N\O)c3csc(N)n3)[C@H]2SC1` [Cmpd 14, (7R)-7-[(Z)-2-(aminothiazol-4-yl)-2-(hydroxyimino)acetamido]-3-(3-guanidinoethylthiomethylpyrid-4-ylthio)-3-cephem-4-carboxylate, trifluoroacetic acid salt], the MIC was 0.25 µg/mL in experiment [1]; 4 µg/mL in experiment [2]; over 32 µg/mL in [3]; 4 µg/mL in experiment [4]; 0.5 µg/mL in [5]; 1 µg/mL in experiment [6]. In addition, the MIC is 0.25 µg/mL in experiment [7]; 2 µg/mL in [8]; 0.25 µg/mL in experiment [9]; 4 µg/mL in experiment [10]; 4 µg/mL in experiment [11]; over 32 µg/mL in [12]. For the same compound, the results for the MIC in experiment [13], in experiment [14] and in [15] were 2 µg/mL, 0.5 µg/mL and 4 µg/mL, respectively. In addition, the responders at 0.3125 mg/kg in [16] stood at 10%. Further, the responders at 0.625 mg/kg in [16] is 30%. Moreover, in [16], the responders at 1.25 mg/kg was 30%. Also, the responders at 2.5 mg/kg in experiment [16] amounted to 90%. The responders at 5 mg/kg in [16] was 100%. Besides, the ED50 in experiment [16] stood at 1.13 mg/kg.

(Values after patent US6087355A, “Cephalosporin antibiotics” (Microcide Pharmaceuticals, Inc., priority 1996, dated 2000).)
